The values that follow come from US6716851B2, “Substituted 2-aryl-4-arylaminopyrimidines and analogs as activators or caspases and inducers of apoptosis and the use thereof” (Cytovia, Inc., priority 2000, dated 2004).

The structures appear in SMILES notation.

In test [1] the test system is T-47D cells. In words: Caspase cascade activation (N-(Ac-DEVD)-N'-ethoxycarbonyl-R110 fluorogenic substrate) in T-47D cells. The format is cell-based, Human. Particulars: 48 h incubation; for EC50: Homo sapiens, T47D, caspase activation potency, read-out: T47 EC50; for T47 Ratio 48 hr: caspase activity: ratio of net RFU of test compound to control. In a few lines:
(§1)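 Cells (0.65×10^6/ml) exposed 48 h at 37 °C to compound (0.016-10 μM final), then lysed with 14 μM DEVD-R110 substrate buffer (PIPES pH 7.2, DTT, lysolecithin) for 3 h at room temperature. Net fluorescence (485/530 nm) relative to control; EC50 by sigmoidal dose-response.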

Test [2] has as its system ZR-75-1 cells. The experiment in a line: Caspase cascade activation (N-(Ac-DEVD)-N'-ethoxycarbonyl-R110 fluorogenic substrate) in ZR-75-1 cells. The format is cell-based, Human. As to conditions: ZR-75-1, 48 h incubation; for EC50: Homo sapiens, caspase activation potency; for ZR Ratio 48 hr: caspase activity: ratio of net RFU of test compound to control. An outline of the steps: as §1

The term EC50 denotes the concentration needed to bring the measured effect to its halfway point. As for `COc1cc(Nc2cc(C(F)(F)F)nc(-c3ccccn3)n2)c(OC)cc1Cl.Cl` [Example 150, 4-(4-Chloro-2,5-dimethoxyanilino)-2-(2-pyridinyl)-6-(trifluoromethyl)pyrimidine hydrochloride], in test [1], the EC50 was 0.135 µM and the “T47 Ratio 48 hr” value turned out to be 11.0. In test [2], the EC50 amounted to 0.133 µM and the “ZR Ratio 48 hr” value amounted to 9.7.

Take `COc1cc(Nc2cc(C(F)(F)F)nc(-c3cnccn3)n2)c(OC)cc1Cl.Cl` [Example 151, 4-(4-Chloro-2,5-dimethoxyanilino)-(2-pyrazinyl)-6-(trifluoromethyl)pyrimidine hydrochloride]: in test [1], the EC50 amounted to 0.388 µM and the “T47 Ratio 48 hr” value came to 12.0. For the same compound, in test [2], the EC50 was 0.276 µM and the “ZR Ratio 48 hr” value is reported as 8.6.

`COc1cc(C)c(Nc2cc(C(F)(F)F)nc(-c3ccccn3)n2)cc1OC.Cl` [Example 152, 4-(4,5-Dimethoxy-2-methylanilino)-2-(2-pyridinyl)-6-(trifluoromethyl)pyrimidine hydrochloride]: in test [1], the concentration giving a half-maximal response (EC50) is 0.035 µM and the “T47 Ratio 48 hr” value is reported as 14.6. Moreover, in test [2], the EC50 is 0.212 µM and the “ZR Ratio 48 hr” value is reported as 8.6.

Take `COc1cc(C)c(Nc2cc(C(F)(F)F)nc(-c3cnccn3)n2)cc1OC.Cl` [Example 153, 4-(4,5-Dimethoxy-2-methylanilino)-2-(2-pyrazinyl)-6-(trifluoromethyl)pyrimidine hydrochloride]: in test [1], the EC50 came out at 0.043 µM and the “T47 Ratio 48 hr” value is recorded as 15.7. Also, in test [2], the EC50 is 0.146 µM and the “ZR Ratio 48 hr” value is 9.3.

For `COc1cc(C)c(Nc2cc(C(F)(F)F)nc(-c3ccncc3)n2)cc1OC.Cl` [Example 154, 4-(4,5-Dimethoxy-2-methylanilino)-2-(4-pyridinyl)-6-(trifluoromethyl)pyrimidine hydrochloride], in test [1], the EC50 was 0.022 µM and the “T47 Ratio 48 hr” value came to 6.1. Moreover, in test [2], the EC50 was determined as 0.014 µM and the “ZR Ratio 48 hr” value is on record as 7.9.

Regarding `Cl.FC(F)(F)Oc1cccc(Nc2cc(C(F)(F)F)nc(-c3ccccn3)n2)c1` [Example 156, 4-(3-Trifluoromethoxyanilino)-2-(2-pyridinyl)-6-(trifluoromethyl)pyrimidine hydrochloride], in test [1], the EC50 was above 5 µM and the “T47 Ratio 48 hr” value was 1.7. Also, in test [2], a half-maximal response (EC50) required 2.26 µM and the “ZR Ratio 48 hr” value is listed as 4.1.

For the compound `COc1cc(C)c(Nc2cc(C(F)(F)F)nc(-c3cccnc3)n2)cc1OC` [Example 157, 4-(4,5-Dimethoxy-2-methylanilino)-2-(3-pyridinyl)-6-(trifluoromethyl)pyrimidine], in test [1], the concentration for a half-maximal effect (EC50) came to 0.043 µM and the “T47 Ratio 48 hr” value came to 6.6. Besides, in test [2], a half-maximal response (EC50) required 0.197 µM and the “ZR Ratio 48 hr” value was 6.4.

Regarding `COc1cc(Nc2cc(C(F)(F)F)nc(-c3ccncc3)n2)c(OC)cc1Cl.Cl` [Example 158, 4-(4-Chloro-2,5-dimethoxyanilino)-2-(4-pyridinyl)-6-(trifluoromethyl)pyrimidine hydrochloride], in test [1], the concentration giving a half-maximal response (EC50) turned out to be 0.509 µM and the “T47 Ratio 48 hr” value worked out at 9.5. Moreover, in test [2], a half-maximal response (EC50) required 0.133 µM and the “ZR Ratio 48 hr” value stood at 6.0.

Consider `COc1cccc(N(C)c2cc(C(F)(F)F)nc(-c3ccccn3)n2)c1` [Example 160, 4-(N-Methyl-3-methoxyanilino)-2-(2-pyridinyl)-6-trifluoromethyl-pyrimidine], for which, in test [1], the concentration giving a half-maximal response (EC50) is above 5 µM and the “T47 Ratio 48 hr” value is 1.0. For the same compound, in test [2], the concentration giving a half-maximal response (EC50) was above 5 µM and the “ZR Ratio 48 hr” value is recorded as 1.4.

Turning to `COc1cc(Nc2cc(C(F)(F)F)nc(-c3ccncc3)n2)cc(OC)c1` [Example 161, 4-(3,5-Dimethoxyanilino)-2-(4-pyridinyl)-6-trifluoromethyl-pyrimidine], in test [1], the EC50 came to 0.079 µM and the “T47 Ratio 48 hr” value is given as 10.7. For the same compound, in test [2], the EC50 stood at 0.086 µM and the “ZR Ratio 48 hr” value stood at 5.1.

As to `COc1ccc(Cl)cc1Nc1cc(C(F)(F)F)nc(-c2ccncc2)n1` [Example 162, 4-(5-Chloro-2-methoxyanilino)-2-(4-pyridinyl)-6-trifluoromethyl-pyrimidine], in test [1], the EC50 was determined as 0.272 µM and the “T47 Ratio 48 hr” value worked out at 11.3. For the same compound, in test [2], the concentration giving a half-maximal response (EC50) worked out at 0.36 µM and the “ZR Ratio 48 hr” value amounted to 7.3.

With `COc1cc(Nc2cc(C(F)(F)F)nc(-c3cc(Cl)nc(Cl)c3)n2)cc(OC)c1` [Example 163, 4-(3,5-Dimethoxyanilino)-2-(2,6-dichloro-4-pyridinyl)-6-trifluoromethylpyrimidine], in test [1], the EC50 is above 5 µM and the “T47 Ratio 48 hr” value is reported as 1.1. Moreover, in test [2], the 50% effective concentration (EC50) was above 5 µM and the “ZR Ratio 48 hr” value was determined as 1.6.

Consider `COc1ccc(Cl)c(Nc2cc(C(F)(F)F)nc(-c3cc(Cl)nc(Cl)c3)n2)c1` [Example 164, 4-(2-Chloro-5-methoxyanilino)-2-(2,6-dichloro-4-pyridinyl)-6-trifluoromethyl-pyrimidine], for which, in test [1], the EC50 is above 5 µM and the “T47 Ratio 48 hr” value is 1.3. Also, in test [2], the concentration giving a half-maximal response (EC50) is above 5 µM and the “ZR Ratio 48 hr” value is recorded as 1.3.

As for `FC(F)(F)c1cc(Nc2ccc3[nH]ccc3c2)nc(-c2cccnc2)n1` [Example 166, 4-(1 H-5-Indolyl-amino)-2-(3-pyridinyl)-6-trifluoromethyl-pyrimidine], in test [1], the 50% effective concentration (EC50) is 0.87 µM and the “T47 Ratio 48 hr” value was 8.0. In test [2], the EC50 worked out at 0.532 µM and the “ZR Ratio 48 hr” value is 3.3.

As for `COc1ccc(Nc2cc(C)nc(-c3ccccn3)n2)cc1OC` [Example 176, 4-(3,4-Dimethoxyanilino)-6-methyl-2-(2-pyridinyl)pyrimidine], in test [1], the EC50 was 0.149 µM and the “T47 Ratio 48 hr” value was 4.5. For the same compound, in test [2], the EC50 is above 5 µM and the “ZR Ratio 48 hr” value is on record as 1.9.

Regarding `COc1ccc(Cl)cc1Nc1cc(C(F)(F)F)nc(-c2cccnc2)n1` [Example 180, 4-(5-Chloro-2-methoxyanilino)-2-(3-pyridinyl)-6-trifluoromethylpyrimidine], in test [1], the EC50 was determined as 0.637 µM and the “T47 Ratio 48 hr” value was 15.1. In test [2], a half-maximal effect (EC50) was put at 0.698 µM and the “ZR Ratio 48 hr” value amounted to 8.7.

Take `COc1cc(Nc2cc(C(F)(F)F)nc(-c3cnccn3)n2)cc(OC)c1` [Example 183, 4-(3,5-Dimethoxyanilino)-2-(2-pyrazinyl)-6-trifluoromethylpyrimidine]: in test [1], the concentration for a half-maximal effect (EC50) is 0.082 µM and the “T47 Ratio 48 hr” value amounted to 17.3. Besides, in test [2], the EC50 is 0.075 µM and the “ZR Ratio 48 hr” value stood at 11.5.

On to `Cc1ccc(O)cc1Nc1cc(C(F)(F)F)nc(-c2ccccn2)n1` [Example 188, 4-(5-Hydroxy-2-methylanilino)-2-(2-pyridinyl)-6-trifluoromethylpyrimidine], for which, in test [1], the EC50 came to 0.429 µM and the “T47 Ratio 48 hr” value came out at 3.6. For the same compound, in test [2], the EC50 came out at 0.271 µM and the “ZR Ratio 48 hr” value amounted to 9.3.

Take `COc1ccc(C)cc1Nc1cc(C(F)(F)F)nc(-c2ccccn2)n1` [Example 190, 4-(2-Methoxy-5-methylanilino)-2-(2-pyridinyl)-6-trifluoromethylpyrimidine]: in test [1], the EC50 came out at 0.029 µM and the “T47 Ratio 48 hr” value was 19.3. In addition, in test [2], the response was half-maximal at 0.032 µM (EC50) and the “ZR Ratio 48 hr” value is listed as 16.7.
